Test system: subjects with advanced malignancies
Experiment: Phase 1 dose escalation: toxicity, safety and tolerability (DLT, MAD, RP2D, AEs)
Conditions: for TEAE: Abdominal distension / TEAE: Abdominal pain / TEAE: Anemia / TEAE: Asthenia / TEAE: Back pain / TEAE: Constipation / TEAE: Cough / TEAE: Decreased appetite / TEAE: Dehydration / TEAE: Diarrhea / TEAE: Dizziness / TEAE: Dyspnea / TEAE: Fatigue / TEAE: Flatulence / TEAE: Hyperbilirubinemia / TEAE: Hyperglycemia / TEAE: Hyperuricemia / TEAE: Hypokalemia / TEAE: Hypophosphatemia / TEAE: Increased ALP / TEAE: Increased ALT / TEAE: Increased AST / TEAE: Nausea / TEAE: Neutropenia / TEAE: Peripheral edema / TEAE: Pyrexia / TEAE: Subjects with any AE / TEAE: Urinary tract infection / TEAE: Vomiting / TEAE: Weight decreased: ≤ 5.08 mg/m^2 (n = 22)

Compound: CCc1cnn2c(NCc3ccc[n+]([O-])c3)cc(N3CCCC[C@H]3CCO)nc12 [dinaciclib]
- Subjects with DLT in cycle 1 (Dose level 14 mg/m^2, 5 subjects): 2
- treatment-related AE: anemia (RP2D 12 mg/m^2, 11 subjects): 5 [45%] subjects [%]
- treatment-related AE: asthenia (RP2D 12 mg/m^2, 11 subjects): 3 [27%] subjects [%]
- treatment-related AE: fatigue (RP2D 12 mg/m^2, 11 subjects): 4 [36%] subjects [%]
- treatment-related AE: hyperuricemia (RP2D 12 mg/m^2, 11 subjects): 3 [27%] subjects [%]
- treatment-related AE: nausea (RP2D 12 mg/m^2, 11 subjects): 3 [27%] subjects [%]
- treatment-related AE: neutropenia (RP2D 12 mg/m^2, 11 subjects): 4 [36%] subjects [%]
- treatment-related AE: pyrexia (RP2D 12 mg/m^2, 11 subjects): 3 [27%] subjects [%]
- treatment-related AE: vomiting (RP2D 12 mg/m^2, 11 subjects): 3 [27%] subjects [%]
- Serious adverse events (Subject 2901, Breast carcinoma, 0.33 mg/m^2, regardless of causality): Anemia, confusion, lethargy
- Serious adverse events (Subject 2914, Ovarian epithelial carcinoma, 3.63 mg/m^2, regardless of causality): Constipation, nausea, abdominal pain, vomiting
- Serious adverse events (Subject 2915, Adenocarcinoma, 3.63 mg/m^2, regardless of causality): Hypocalcemia, hypokalemia, hypophosphatemia, coagulation time prolonged
- Serious adverse events (Subject 2919, Colon cancer, 3.63 mg/m^2, regardless of causality): Back pain, chest pain, dyspnea
- Serious adverse events (Subject 2920, Melanoma, 3.63 mg/m^2, regardless of causality): Cholelithiasis, liver disorder
- Serious adverse events (Subject 2922, Ovarian epithelial cancer, 3.63 mg/m^2, regardless of causality): Intestinal ischemia, pericardial effusion
- Serious adverse events (Subject 2926, Pelvic sarcoma, 7.11 mg/m^2, regardless of causality): Deep vein thrombosis, anemia
- Serious adverse events (Subject 2927, Gastric adenocarcinoma, 7.11 mg/m^2, regardless of causality): Vomiting, aspiration
- Serious adverse events (Subject 2928, Gastrointestinal stromal tumor, 7.11 mg/m^2, regardless of causality): Gastric ulcer, hematemesis, asthenia, sepsis, dyspnea, mental status changes, overdose
- Serious adverse events (Subject 2930, SCLC, 7.11 mg/m^2, regardless of causality): Cardiac arrest
- Serious adverse events (Subject 2931, Esophageal carcinoma, 7.11 mg/m^2, regardless of causality): Esophageal obstruction, pyrexia, hemorrhagic anemia
- Serious adverse events (Subject 2937, Adenoid cyst carcinoma, 14 mg/m^2, regardless of causality): Pneumothorax, cardiac tamponade, pneumoperitoneum, intestinal perforation, peritonitis, sepsis
- Serious adverse events (Subject 2940, Breast carcinoma, 14 mg/m^2, regardless of causality): Death
- Serious adverse events (Subject 2945, NSCLC, 12 mg/m^2, regardless of causality): Cerebrovascular accident
- Serious adverse events (Subject 2947, Colorectal cancer, 12 mg/m^2, regardless of causality): Pelvic abscess, septic shock, deep vein thrombosis
- Serious adverse events (Subject 2950, Colon cancer, 12 mg/m^2, regardless of causality): Deep vein thrombosis, bradycardia, respiratory failure, syncope, tumor lysis syndrome
- Serious adverse events (Subject 2951, Ovarian metastatic cancer, 12 mg/m^2, regardless of causality): Anemia, neutropenic sepsis, sepsis, gastrointestinal hemorrhage, diarrhea, bacterial infection, neutropenia, thrombocytopenia
- SAE: anemia (all dose levels): 3 (6%) subjects (%)
- SAE: deep vein thrombosis (all dose levels): 3 (6%) subjects (%)
- SAE: sepsis (all dose levels): 3 (6%) subjects (%)
- grade 3 or 4 treatment-related AE: hyperuricemia (all dose levels): 3 [6%] subjects [%]
- grade 3 or 4 treatment-related AE: neutropenia (all dose levels): 5 [10%] subjects [%]
- subjects with AEs leading to discontinuation of treatment (all dose levels): 6 (13%) subjects (%)
- subjects with grade 3 or 4 treatment-related AEs (all dose levels): 16 subjects
- subjects with serious AEs (SAEs) (all dose levels): 17 (33%) subjects (%)
- treatment-related AE: anemia (all dose levels): 10 [21%] subjects [%]
- treatment-related AE: fatigue (all dose levels): 7 [15%] subjects [%]
- treatment-related AE: nausea (all dose levels): 16 [33%] subjects [%]
- treatment-related AE: neutropenia (all dose levels): 8 [17%] subjects [%]
- treatment-related AE: vomiting (all dose levels): 8 [17%] subjects [%]
- subjects reporting treatment-emergent adverse events (all dose levels, 48 treated): 47 (98%) subjects (%)
- subjects with AEs possibly related to study drug (all dose levels, 48 treated): 35 (73%) subjects (%)
- instances of grade 2 toxicity (at 1.32 mg/m^2): 2
- deaths due to disease progression (of 52 enrolled, considered unlikely related to study treatment): 7 [13%] subjects [%]
- deaths due to AEs (of 52 enrolled, deemed unlikely related to dinaciclib, one subject never treated): 4 (8%) subjects (%)
- subjects who died during this study (of the 52 subjects enrolled): 21%
- TEAE: Abdominal distension (All grades): 3 (14) n (%)
- TEAE: Abdominal pain (All grades): 4 (18) n (%)
- TEAE: Anemia (All grades): 8 (36) n (%)
- TEAE: Asthenia (All grades): 4 (18) n (%)
- TEAE: Back pain (All grades): 8 (36) n (%)
- TEAE: Constipation (All grades): 5 (23) n (%)
- TEAE: Cough (All grades): 3 (14) n (%)
- TEAE: Decreased appetite (All grades): 9 (41) n (%)
- TEAE: Dehydration (All grades): 8 (36) n (%)
- TEAE: Diarrhea (All grades): 3 (14) n (%)
- TEAE: Dizziness (All grades): 0 n (%)
- TEAE: Dyspnea (All grades): 3 (14) n (%)
- TEAE: Fatigue (All grades): 7 (32) n (%)
- TEAE: Flatulence (All grades): 3 (14) n (%)
- TEAE: Hyperbilirubinemia (All grades): 5 (23) n (%)
- TEAE: Hyperglycemia (All grades): 1 (5) n (%)
- TEAE: Hyperuricemia (All grades): 1 (5) n (%)
- TEAE: Hypokalemia (All grades): 2 (9) n (%)
- TEAE: Hypophosphatemia (All grades): 4 (18) n (%)
- TEAE: Increased ALP (All grades): 3 (14) n (%)
- TEAE: Increased ALT (All grades): 3 (14) n (%)
- TEAE: Increased AST (All grades): 3 (14) n (%)
- TEAE: Nausea (All grades): 6 (27) n (%)
- TEAE: Neutropenia (All grades): 0 n (%)
- TEAE: Peripheral edema (All grades): 3 (14) n (%)
- TEAE: Pyrexia (All grades): 3 (14) n (%)
- TEAE: Subjects with any AE (All grades): 21 (95) n (%)
- TEAE: Urinary tract infection (All grades): 5 (23) n (%)
- TEAE: Vomiting (All grades): 2 (9) n (%)
- TEAE: Weight decreased (All grades): 4 (18) n (%)
- TEAE: Abdominal distension (Grade 3–4): 0 n (%)
- TEAE: Abdominal pain (Grade 3–4): 1 (5) n (%)
- TEAE: Anemia (Grade 3–4): 1 (5) n (%)
- TEAE: Asthenia (Grade 3–4): 2 (9) n (%)
- TEAE: Back pain (Grade 3–4): 3 (14) n (%)
- TEAE: Constipation (Grade 3–4): 0 n (%)
- TEAE: Cough (Grade 3–4): 0 n (%)
- TEAE: Decreased appetite (Grade 3–4): 0 n (%)
- TEAE: Dehydration (Grade 3–4): 0 n (%)
- TEAE: Diarrhea (Grade 3–4): 0 n (%)
- TEAE: Dizziness (Grade 3–4): 0 n (%)
- TEAE: Dyspnea (Grade 3–4): 1 (5) n (%)
- TEAE: Fatigue (Grade 3–4): 2 (9) n (%)
- TEAE: Flatulence (Grade 3–4): 0 n (%)
- TEAE: Hyperbilirubinemia (Grade 3–4): 3 (14) n (%)
- TEAE: Hyperglycemia (Grade 3–4): 0 n (%)
- TEAE: Hyperuricemia (Grade 3–4): 1 (5) n (%)
- TEAE: Hypokalemia (Grade 3–4): 1 (5) n (%)
- TEAE: Hypophosphatemia (Grade 3–4): 3 (14) n (%)
- TEAE: Increased ALP (Grade 3–4): 1 (5) n (%)
- TEAE: Increased ALT (Grade 3–4): 1 (5) n (%)
- TEAE: Increased AST (Grade 3–4): 1 (5) n (%)
- TEAE: Nausea (Grade 3–4): 0 n (%)
- TEAE: Neutropenia (Grade 3–4): 0 n (%)
- TEAE: Peripheral edema (Grade 3–4): 0 n (%)
- TEAE: Pyrexia (Grade 3–4): 0 n (%)
- TEAE: Subjects with any AE (Grade 3–4): 11 (50) n (%)
- TEAE: Urinary tract infection (Grade 3–4): 0 n (%)
- TEAE: Vomiting (Grade 3–4): 1 (5) n (%)
- TEAE: Weight decreased (Grade 3–4): 0 n (%)

Source: publication PMC3853718 (Journal of Translational Medicine, 2013)
